# Results as given in US8569344B2, “N-piperidinyl acetamide derivatives as calcium channel blockers” (Zalicus Pharmaceuticals Ltd., priority 2008, dated 2013).
# pIC50: −log10 of the molar value.
# Molecular target: T1, human α1G T-type channels (Homo sapiens, UniProt O43497)
# T1 construct: expressed in transfected cells; host or cells: HEK 293
# Experiment: T-type calcium channel block, whole cell patch clamp in HEK cells (α1G)
# Format: cell-based
# Conditions: HEK cells, patch clamp, mainly non-inactivated protocol; values above 10 μM shown as 10 μM, below 0.30 μM shown as 0.30 μM; read-out: T-type Calcium Channel Block α1G IC50
# Method: T-type calcium channel blocking activity was assayed in human embryonic kidney cells, HEK 293, stably transfected with the T-type calcium channel subunits. Briefly, cells were cultured in Dulbecco's modified eagle medium (DMEM) supplemented with 10% fetal bovine serum, 200 U/ml penicillin and 0.2 mg/ml streptomycin at 37° C. with 5% CO2. At 85% confluency cells were split with 0.25% trypsin/1 mM EDTA and plated at 10% confluency on glass coverslips. […] Fresh DMEM was supplied and the cells transferred to 28° C./5% CO2. Cells were incubated for 1 to 2 days prior to whole cell recording.
# Standard patch-clamp techniques were employed to identify blockers of T-type currents. Briefly, previously described HEK cell lines stably expressing human α1G, α1H and α1I T-type channels were used for all the recordings (passage #: 4-20, 37° C., 5% CO2). Whole cell patch clamp experiments were performed using an Axopatch 200B amplifier (Axon Instruments, Burlingame, Calif.) linked to a personal computer equipped with pCLAMP software. Data were analyzed using Clampfit (Axon Instruments) and SigmaPlot 4.0 (Jandel Scientific). To obtain T-type currents, plastic dishes containing semi-confluent cells were positioned on the stage of a ZEISS AXIOVERT S100 microscope after replacing the culture medium with external solution (see below). Whole-cell patches were obtained using pipettes (borosilicate glass with filament, O.D.: 1.5 mm, I.D.: 0.86 mm, 10 cm length), fabricated on a SUTTER P-97 puller with resistance values of ˜5 MΩ (see below for internal solution).
# In the non-inactivating protocol, the holding potential is set at −110 mV and with a pre-pulse at −100 mV for 1 second prior to the test pulse at −40 mV for 50 ms.
# Test compounds were dissolved in external solution, 0.1-0.01% DMSO. After ˜10 min rest, they were applied by gravity close to the cell using a WPI microfil tubing. The “non-inactivated” pre-pulse was used to examine the resting block of a compound. The “inactivated” protocol was employed to study voltage-dependent block. […] Values are shown in μM and values above 10 μM are simply represented as 10 μM.
# T1 sequence (O43497 whole entry): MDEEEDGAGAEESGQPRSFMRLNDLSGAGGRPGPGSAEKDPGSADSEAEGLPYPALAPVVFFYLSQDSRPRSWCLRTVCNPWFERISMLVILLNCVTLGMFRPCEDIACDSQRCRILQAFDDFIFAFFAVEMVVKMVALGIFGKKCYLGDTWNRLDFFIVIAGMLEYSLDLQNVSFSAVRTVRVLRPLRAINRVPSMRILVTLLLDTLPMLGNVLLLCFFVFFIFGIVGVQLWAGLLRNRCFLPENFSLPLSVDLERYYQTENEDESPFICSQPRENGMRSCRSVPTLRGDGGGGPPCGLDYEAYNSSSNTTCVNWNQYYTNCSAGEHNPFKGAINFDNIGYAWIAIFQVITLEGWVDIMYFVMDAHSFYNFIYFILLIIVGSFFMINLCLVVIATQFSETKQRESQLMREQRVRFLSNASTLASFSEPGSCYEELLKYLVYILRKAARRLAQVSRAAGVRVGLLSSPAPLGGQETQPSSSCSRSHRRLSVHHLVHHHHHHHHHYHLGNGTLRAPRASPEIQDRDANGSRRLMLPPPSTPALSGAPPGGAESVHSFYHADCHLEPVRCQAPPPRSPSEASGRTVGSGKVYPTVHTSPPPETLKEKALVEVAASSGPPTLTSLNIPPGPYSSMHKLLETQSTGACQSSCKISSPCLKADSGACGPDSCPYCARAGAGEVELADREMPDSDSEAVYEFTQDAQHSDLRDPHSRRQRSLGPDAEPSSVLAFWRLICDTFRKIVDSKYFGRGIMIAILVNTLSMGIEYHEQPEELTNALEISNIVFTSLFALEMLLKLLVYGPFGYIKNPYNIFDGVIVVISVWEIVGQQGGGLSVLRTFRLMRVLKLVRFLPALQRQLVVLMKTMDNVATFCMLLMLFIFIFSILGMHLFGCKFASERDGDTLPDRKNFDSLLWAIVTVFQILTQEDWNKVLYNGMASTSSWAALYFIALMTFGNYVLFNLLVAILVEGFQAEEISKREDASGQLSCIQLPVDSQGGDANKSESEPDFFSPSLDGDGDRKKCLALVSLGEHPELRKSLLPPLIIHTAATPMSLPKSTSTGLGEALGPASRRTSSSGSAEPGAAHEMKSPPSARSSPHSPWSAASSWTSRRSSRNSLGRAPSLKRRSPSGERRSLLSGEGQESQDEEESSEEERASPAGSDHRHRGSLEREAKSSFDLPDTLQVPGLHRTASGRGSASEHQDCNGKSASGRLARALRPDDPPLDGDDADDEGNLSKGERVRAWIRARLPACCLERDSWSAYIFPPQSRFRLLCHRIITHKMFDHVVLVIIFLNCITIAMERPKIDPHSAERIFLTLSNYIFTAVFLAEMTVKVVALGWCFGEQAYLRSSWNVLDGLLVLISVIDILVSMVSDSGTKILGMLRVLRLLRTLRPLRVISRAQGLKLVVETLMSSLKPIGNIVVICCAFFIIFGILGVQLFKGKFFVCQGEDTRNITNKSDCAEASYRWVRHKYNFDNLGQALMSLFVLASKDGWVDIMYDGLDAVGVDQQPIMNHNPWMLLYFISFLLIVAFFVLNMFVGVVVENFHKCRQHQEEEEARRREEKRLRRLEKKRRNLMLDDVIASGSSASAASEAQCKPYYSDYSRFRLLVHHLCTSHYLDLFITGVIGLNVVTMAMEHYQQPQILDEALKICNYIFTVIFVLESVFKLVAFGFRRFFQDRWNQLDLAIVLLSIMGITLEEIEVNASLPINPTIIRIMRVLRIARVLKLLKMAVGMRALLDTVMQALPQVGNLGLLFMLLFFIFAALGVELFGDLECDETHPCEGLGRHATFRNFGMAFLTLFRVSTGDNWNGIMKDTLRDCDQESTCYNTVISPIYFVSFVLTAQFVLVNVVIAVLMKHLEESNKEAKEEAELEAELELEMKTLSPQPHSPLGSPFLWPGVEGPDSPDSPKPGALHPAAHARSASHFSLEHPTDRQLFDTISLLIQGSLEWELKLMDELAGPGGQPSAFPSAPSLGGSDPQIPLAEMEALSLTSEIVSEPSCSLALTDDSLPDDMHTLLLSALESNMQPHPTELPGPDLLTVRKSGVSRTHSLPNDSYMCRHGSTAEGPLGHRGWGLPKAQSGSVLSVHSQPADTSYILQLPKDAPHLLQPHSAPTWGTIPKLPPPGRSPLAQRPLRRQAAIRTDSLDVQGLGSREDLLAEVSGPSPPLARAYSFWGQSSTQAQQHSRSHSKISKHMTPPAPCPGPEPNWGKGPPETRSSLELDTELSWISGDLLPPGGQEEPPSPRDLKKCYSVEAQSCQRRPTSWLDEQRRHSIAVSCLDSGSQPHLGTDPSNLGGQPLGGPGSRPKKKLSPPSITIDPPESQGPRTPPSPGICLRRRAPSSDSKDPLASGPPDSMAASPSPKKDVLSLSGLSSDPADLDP
row,Compound,pIC50
1,"COC(=O)NC(CN1CCC(CC(=O)NCc2cc(Cl)cc(Cl)c2)CC1)C(C)(C)C (stereo not shown) [Compound 223, methyl 1-(4-(2-(3,5-dichlorobenzyl-amino)-2-oxoethyl)piperidin-1-yl)-3,3-dimethylbutan-2-ylcarbamate]",5.09
2,"N#CC1CCN(CC(=O)N2CCC(CNC(=O)c3cc(C(F)(F)F)cc(C(F)(F)F)c3)CC2)CC1 [Compound 259, N-((1-(2-(4-cyanopiperidin-1-yl)acetyl)piperidin-4-yl)methyl)-3,5-bis(trifluoromethyl)benzamide]",< 5.00
3,"O=C(NCC1CCN(C(=O)CNCCCN2CCOCC2)CC1)c1cc(F)cc(C(F)(F)F)c1 [Compound 270, 3-fluoro-N-((1-(2-(3-morpholinopropylamino)acetyl)piperidin-4-yl)methyl)-5-(trifluoromethyl)benzamide]",< 5.00
4,"COc1ccc(C(=O)NCC2CCN(CCNS(=O)(=O)C(F)(F)F)CC2)cc1OC [Compound 332, 3,4-dimethoxy-N-((1-(2-(trifluoromethylsulfonamido)ethyl)piperidin-4-yl)methyl)benzamide]",< 5.00
5,"O=C(NCC1CCN(CCNS(=O)(=O)C2CC2)CC1)c1cc(F)cc(Cl)c1 [Compound 390, 3-chloro-N-((1-(2-(cyclopropanesulfonamido)ethyl)piperidin-4-yl)methyl)-5-fluoro-benzamide]",> 6.52
6,"Cc1cc(C)cc(C(=O)NCC2CCN(CCNC(=O)C3CCCC3)CC2)c1 [Compound 392, N-((1-(2-(cyclopentanecarboxamido)ethyl)piperidin-4-yl)methyl)-3,5-dimethyl-benzamide]",5.70
7,"Cc1cc(F)cc(C(=O)NCC2CCN(CCNC(=O)C3CCCC3)CC2)c1 [Compound 393, N-((1-(2-(cyclopentanecarboxamido)ethyl)piperidin-4-yl)methyl)-3-fluoro-5-methylbenzamide]",5.22
8,"O=C(NCC1CCN(CCNC(=O)C2CCCC2)CC1)c1cccc(Cl)c1 [Compound 394, 3-chloro-N-((1-(2-(cyclopentanecarboxamido)ethyl)piperidin-4-yl)methyl)benzamide]",5.34
9,"O=C(NCC1CCN(CCNC(=O)C2CCCC2)CC1)c1cc(F)cc(F)c1 [Compound 395, N-((1-(2-(cyclopentanecarboxamido)ethyl)piperidin-4-yl)methyl)-3,5-difluoro-benzamide]",< 5.00
10,"COc1cc(F)cc(C(=O)NCC2CCN(CCNC(=O)C3CCCC3)CC2)c1 [Compound 396, N-((1-(2-(cyclopentanecarboxamido)ethyl)piperidin-4-yl)methyl)-3-fluoro-5-methoxybenzamide]",5.54
11,"O=C(NCC1CCN(CCNC(=O)C2CCCC2)CC1)c1cc(F)cc(Cl)c1 [Compound 397, 3-chloro-N-((1-(2-(cyclopentanecarboxamido)ethyl)piperidin-4-yl)methyl)-5-fluoro-benzamide]",5.75
12,"O=C(NCC1CCN(CCNC(=O)C2CCCC2)CC1)c1cccc(C(F)(F)F)c1 [Compound 398, N-((1-(2-(cyclopentanecarboxamido)ethyl)piperidin-4-yl)methyl)-3-(trifluoromethyl)benzamide]",5.45
13,"O=C(NCC1CCN(CCNC(=O)C2CCCC2)CC1)c1cccc(Br)c1 [Compound 400, 3-bromo-N-((1-(2-(cyclopentanecarboxamido)ethyl)piperidin-4-yl)methyl)benzamide]",5.82
14,"O=C(NCC1CCN(CCNC(=O)C2CCCC2)CC1)c1cccc(OC(F)(F)F)c1 [Compound 401, N-((1-(2-(cyclopentanecarboxamido)ethyl)piperidin-4-yl)methyl)-3-(trifluoromethoxy)benzamide]",6.04
15,"O=C(NCC1CCN(CCNC(=O)C2CCCC2)CC1)c1cc(F)cc(C(F)(F)F)c1 [Compound 402, N-((1-(2-(cyclopentanecarboxamido)ethyl)piperidin-4-yl)methyl)-3-fluoro-5-(trifluoromethyl)benzamide]",6.27
16,"CCOc1cc(OCC)cc(C(=O)NCC2CCN(CCNC(=O)C3CCCC3)CC2)c1 [Compound 403, N-((1-(2-(cyclopentanecarboxamido)ethyl)piperidin-4-yl)methyl)-3,5-diethoxybenzamide]",5.95
17,"COc1cc(C(=O)NCC2CCN(CCNC(=O)C3CCCC3)CC2)cc(C(F)(F)F)c1 [Compound 404, N-((1-(2-(cyclopentanecarboxamido)ethyl)piperidin-4-yl)methyl)-3-methoxy-5-(trifluoromethyl)benzamide]",6.42
18,"O=C(NCC1CCN(CCNC(=O)C2CCCC2)CC1)c1cc(Cl)cc(C(F)(F)F)c1 [Compound 405, 3-chloro-N-((1-(2-(cyclopentanecarboxamido)ethyl)piperidin-4-yl)methyl)-5-(trifluoromethyl)benzamide]",> 6.52
19,"O=C(NCC1CCN(CCNC(=O)C2CCCC2)CC1)c1cc(Cl)cc(Br)c1 [Compound 406, 3-bromo-5-chloro-N-((1-(2-(cyclopentanecarboxamido)ethyl)piperidin-4-yl)methyl)benzamide]",> 6.52

# Next, values leading:
row,pIC50,Compound
1,> 6.52,"O=C(NCC1CCN(CCNC(=O)C2CCCC2)CC1)c1cc(Br)cc(C(F)(F)F)c1 [Compound 407, 3-bromo-N-((1-(2-(cyclopentanecarboxamido)ethyl)piperidin-4-yl)methyl)-5-(trifluoromethyl)benzamide]"
2,5.47,"O=C(Cc1cc(C(F)(F)F)cc(C(F)(F)F)c1)NCC1CCN(CCNC(=O)C2CCCC2)CC1 [Compound 408, N-(2-(4-((2-(3,5-bis(trifluoromethyl)phenyl)acetamido)methyl)piperidin-1-yl)ethyl)cyclopentanecarboxamide]"
3,> 6.52,"O=C(NCC1CCN(CCNC(=O)C2CCCC2)CC1)c1cc(Br)cc(Br)c1 [Compound 409, 3,5-dibromo-N-((1-(2-(cyclopentanecarboxamido)ethyl)piperidin-4-yl)methyl)benzamide]"
4,5.94,"CC(C)(C)NC(=O)N1CCC[C@H]1CN1CCC(CNC(=O)c2cc(F)cc(C(F)(F)F)c2)CC1 [Compound 410, (S)-N-tert-butyl-2-((4-((3-fluoro-5-(trifluoromethyl)benzamido)methyl)piperidin-1-yl)methyl)pyrrolidine-1-carboxamide]"
5,< 5.00,"CN(CC1CCN(CCNC(=O)NC(C)(C)C)CC1)C(=O)c1cc(F)cc(C(F)(F)F)c1 [Compound 411, N-((1-(2-(3-tert-butylureido)ethyl)piperidin-4-yl)methyl)-3-fluoro-N-methyl-5-(trifluoromethyl)benzamide]"
6,< 5.00,"CN(CC1CCN(CCNC(=O)C(C)(C)C)CC1)C(=O)c1cc(F)cc(C(F)(F)F)c1 [Compound 412, 3-fluoro-N-methyl-N-((1-(2-pivalamidoethyl)piperidin-4-yl)methyl)-5-(trifluoromethyl)benzamide]"
7,< 5.00,"CN(CC1CCN(CCNC(=O)CC(C)(C)C)CC1)C(=O)c1cc(F)cc(C(F)(F)F)c1 [Compound 413, N-((1-(2-(3,3-dimethylbutanamido)ethyl)piperidin-4-yl)methyl)-3-fluoro-N-methyl-5-(trifluoromethyl)benzamide]"
8,< 5.00,"CS(=O)(=O)N1CCC[C@H]1CN1CCC(CNC(=O)c2cc(F)cc(C(F)(F)F)c2)CC1 [Compound 416, (S)-3-fluoro-N-((1-((1-(methylsulfonyl)pyrrolidin-2-yl)methyl)piperidin-4-yl)methyl)-5-(trifluoromethyl)benzamide]"
9,5.02,CCS(=O)(=O)N1CCC[C@H]1CN1CCC(CNC(=O)c2cc(F)cc(C(F)(F)F)c2)CC1 [Compound 417]
10,5.66,"O=C(NCC1CCN(C[C@@H]2CCCN2S(=O)(=O)C2CC2)CC1)c1cc(F)cc(C(F)(F)F)c1 [Compound 418, (S)-N-((1-((1-(cyclopropylsulfonyl)pyrrolidin-2-yl)methyl)piperidin-4-yl)methyl)-3-fluoro-5-(trifluoromethyl) benzamide]"
11,5.79,"O=C(NCC1CCN(C[C@@H]2CCCN2S(=O)(=O)C2CCC2)CC1)c1cc(F)cc(C(F)(F)F)c1 [Compound 419, (S)-N-((1-((1-(cyclobutylsulfonyl)pyrrolidin-2-yl)methyl)piperidin-4-yl)methyl)-3-fluoro-5-(trifluoromethyl)benzamide]"
12,6.15,"O=C(NCC1CCN(C[C@@H]2CCCN2S(=O)(=O)C2CCCC2)CC1)c1cc(F)cc(C(F)(F)F)c1 [Compound 420, (S)-N-((1-((1-(cyclopentylsulfonyl)pyrrolidin-2-yl)methyl)piperidin-4-yl)methyl)-3-fluoro-5-(trifluoromethyl)benzamide]"
